According to US11566030B2, “Substituted 2,6-dihydropyrrolo[3,4-c]pyrazoles as pyruvate kinase activators” (priority 2021, dated 2023):
Where two headings read alike, the source gives them in different places.

Target: T1, Human pyruvate kinase R (PKR) (Homo sapiens, UniProt P30613)
T1 construct: Human pyruvate kinase R (PKR), residues 14-574; 6xHis-8xArg-SUMO (N, cleaved yes); host or cells: E. coli
Experiment: Biochemical assay for activation of pyruvate kinase R (Kinase-Glo luminescence, ATP generation)
Details: for Emax: read-out: PKR % activation, maximal activation level achieved with each compound relative to the activation level achieved by AG-348 @ 10 μM
Experimental: Human pyruvate kinase R (PKR), residues 14-574, and human pyruvate kinase M2, residues 1-531, were cloned into expression plasmids and obtained from ATUM Bio (Newark, Calif.). Proteins were translated as fusions with 6×-His,8×-Arg, and SUMO at the N-terminus. A third construct of human PKR was truncated, residues 50-574, and similarly cloned for use in crystallography experiments. All proteins were cloned, expressed in E. coli, and purified using similar protocols. Cells were grown at 30° C. in Luria-Bertani broth supplemented with 0.4% glucose to OD600=0.8 and induced with 0.4 mM IPTG at 16° C. for 18 hours. Cells were harvested by centrifugation, resuspended in 50 mM potassium phosphate pH 8.0, 500 mM NaCl, 25 mM imidazole pH 8.0, and 3 mM β-mercaptoethanol. Cells were lysed using a LM20 microfluidizer from Microfluidics (Westwood, Mass.). The crude lysate was immediately supplemented with 0.2 mM phenylmethylsulfonyl fluoride (PMSF) and centrifuged at 20,000 g for 20 minutes. The soluble fraction was subsequently incubated with 2 mL Ni-NTA (GE Healthcare) per 1,000 ODs for 1 hour at 4° C. Following incubation with the Ni-NTA resin, lysate was removed by pelleting resin at 2,500 g for 3 minutes and washed 3 times with 9 bed volumes of 50 mM potassium phosphate pH 8.0, 500 mM NaCl, 25 mM imidazole, and 3 mM β-mercaptoethanol. Following the batch wash Ni-NTA resin was loaded onto a gravity column and His-tagged protein was eluted with 6 bed volumes of 10 mM Tris/HCl pH 8.0, 200 mM NaCl, 500 mM imidazole, and 3 mM β-mercaptoethanol. Eluted protein was dialyzed overnight against 10 mM Tris/HCl pH 8.0, 200 mM NaCl, and 1 mM DTT and the 6×-His-8×-Arg-SUMO-tag was cleaved using a 20:1 molar ratio of protein: 3C protease. The protein was purified by anion exchange chromatography on a HiTrapQ or MonoQ 10/100 GL column (GE Healthcare) via a linear NaCl gradient and twice by size exclusion chromatography using a Superdex S200 26/60 column (GE Healthcare) run in 10 mM Tris/HCl pH 8.0, 200 mM NaCl, 10 mM MgCl2, 1 mM DTT. Proteins were concentrated to −12 mg/mL for crystallization and flash frozen for storage.
Biochemical assay for Activation of Pyruvate Kinase R
Activation of pyruvate kinase R (PKR) and pyruvate kinase M2 (PKM2) were measured using a luminescence based measurement of ATP generation and the Kinase-Glo luminescent kinase reagent kit.

[1] = PKR AC50 (nM), 0.1 nM PKR, 0.3 mM ADP, 0.1 mM PEP, 1% DMSO

T1 sequence (P30613 14-574): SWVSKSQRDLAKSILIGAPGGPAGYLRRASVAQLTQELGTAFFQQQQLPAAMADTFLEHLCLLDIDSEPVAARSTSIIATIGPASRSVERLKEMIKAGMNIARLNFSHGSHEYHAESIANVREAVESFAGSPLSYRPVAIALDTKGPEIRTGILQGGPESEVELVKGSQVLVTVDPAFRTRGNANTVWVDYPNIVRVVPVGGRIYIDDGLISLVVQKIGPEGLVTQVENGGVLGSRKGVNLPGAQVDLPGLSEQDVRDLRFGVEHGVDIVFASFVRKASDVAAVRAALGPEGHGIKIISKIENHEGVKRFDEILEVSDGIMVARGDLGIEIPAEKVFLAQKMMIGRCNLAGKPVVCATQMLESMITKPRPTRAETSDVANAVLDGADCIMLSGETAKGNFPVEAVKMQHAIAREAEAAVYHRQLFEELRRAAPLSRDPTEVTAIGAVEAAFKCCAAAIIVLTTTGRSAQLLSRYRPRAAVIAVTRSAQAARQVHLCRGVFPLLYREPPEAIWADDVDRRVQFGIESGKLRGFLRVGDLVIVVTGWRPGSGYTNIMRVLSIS

AC50 [nM]	Emax [%]	AC50 [1] [nM]	Structure (SMILES)
7.1	129		Cc1c(S(=O)(=O)n2cc3c(n2)CN(C(=O)[C@H](CO)c2ccccc2F)C3)cnn1CC(F)F [Compound 14, (2S)-1-(2-{[1-(2,2-difluoroethyl)-5-methyl-1H-pyrazol-4-yl]sulfonyl}-2H,4H,5H,6H-pyrrolo[3,4-c]pyrazol-5-yl)-2-(2-fluorophenyl)-3-hydroxypropan-1-one]
	23	53	O=C([C@H](CO)c1ccccc1)N1Cc2cn(S(=O)(=O)c3ccc(CCC(F)(F)F)s3)nc2C1 [Compound 17, (2S)-3-hydroxy-2-phenyl-1-(2-{[5-(3,3,3-trifluoropropyl)thiophen-2-yl]sulfonyl}-2H,4H,5H,6H-pyrrolo[3,4-c]pyrazol-5-yl)propan-1-one]
	70	72	O=C([C@H](CO)c1ccccc1)N1Cc2cn(S(=O)(=O)c3ccc(-c4ccccc4)s3)nc2C1 [Compound 18, (2S)-3-hydroxy-2-phenyl-1-{2-[(5-phenylthiophen-2-yl)sulfonyl]-2H,4H,5H,6H-pyrrolo[3,4-c]pyrazol-5-yl}propan-1-one]
	67	19	O=C([C@H](CO)c1ccccc1)N1Cc2cn(S(=O)(=O)c3ccc(Br)s3)nc2C1 [Compound 19, (2S)-1-{2-[(5-bromothiophen-2-yl)sulfonyl]-2H,4H,5H,6H-pyrrolo[3,4-c]pyrazol-5-yl}-3-hydroxy-2-phenylpropan-1-one]
16	65		CCc1ccc(S(=O)(=O)n2cc3c(n2)CN(C(=O)[C@H](CO)c2ccccc2)C3)s1 [Compound 21, (2S)-1-{2-[(5-ethylthiophen-2-yl)sulfonyl]-2H,4H,5H,6H-pyrrolo[3,4-c]pyrazol-5-yl}-3-hydroxy-2-phenylpropan-1-one]
	0	1000	Cc1nc(OCC(F)(F)F)sc1S(=O)(=O)n1cc2c(n1)CN(C(=O)[C@H](CO)c1ccccc1)C2 [Compound 22, (2S)-3-hydroxy-1-(2-{[4-methyl-2-(2,2,2-trifluoroethoxy)-1,3-thiazol-5-yl]sulfonyl}-2H,4H,5H,6H-pyrrolo[3,4-c]pyrazol-5-yl)-2-phenylpropan-1-one]
8.6	30		COc1nc(C)c(S(=O)(=O)n2cc3c(n2)CN(C(=O)[C@H](CO)c2ccccc2F)C3)s1 [Compound 23, (2S)-2-(2-fluorophenyl)-3-hydroxy-1-{2-[(2-methoxy-4-methyl-1,3-thiazol-5-yl)sulfonyl]-2H,4H,5H,6H-pyrrolo[3,4-c]pyrazol-5-yl}propan-1-one]
	93	64	O=C([C@H](CO)c1ccccc1)N1Cc2cn(S(=O)(=O)c3cn(CC(F)F)cn3)nc2C1 [Compound 24, (2S)-1-(2-{[1-(2,2-difluoroethyl)-1H-imidazol-4-yl]sulfonyl}-2H,4H,5H,6H-pyrrolo[3,4-c]pyrazol-5-yl)-3-hydroxy-2-phenylpropan-1-one]
	125	130	O=C([C@@H](CO)c1ccccc1F)N1Cc2cn(S(=O)(=O)c3cnn(CCF)c3)nc2C1 [Compound 35, (2R)-1-[2-[1-(2-fluoroethyl)pyrazol-4-ylsulfonyl]-4H,6H-pyrrolo[3,4c]pyrazol-5-yl]-2-(2-fluorophenyl)-3-hydroxypropan-1-one]
	85	23	O=C([C@H](O)c1ccccc1F)N1Cc2cn(S(=O)(=O)c3cnn(CC(F)F)c3)nc2C1 [Compound 36, (2R)-1-[2-[1-(2,2-difluoroethyl)pyrazol-4-ylsulfonyl]-4H,6H-pyrrolo[3,4-c]pyrazol-5-yl]-2-(2-fluorophenyl)-2-hydroxyethanone]
150	191		O=C([C@@H](CO)c1ccccc1Cl)N1Cc2cn(S(=O)(=O)c3cnn(CC(F)F)c3)nc2C1 [Compound 46, (R)-2-(2-chlorophenyl)-1-(2-((1-(2,2-difluoroethyl)-1H-pyrazol-4-yl)sulfonyl)-2,6-dihydropyrrolo[3,4-c]pyrazol-5(4H)-yl)-3-hydroxypropan-1-one]
	113	71	C[C@@H](O)[C@@H](C(=O)N1Cc2cn(S(=O)(=O)c3cnn(CC(F)(F)F)c3)nc2C1)c1ccccc1 [Compound 49, (2S,3R)-3-hydroxy-2-phenyl-1-{2-[1-(2,2,2-trifluoroethyl)pyrazol-4-ylsulfonyl]-4H,6H-pyrrolo[3,4-c]pyrazol-5-yl}butan-1-one]
	89	82	C[C@H](O)[C@@H](C(=O)N1Cc2cn(S(=O)(=O)c3cnn(CC(F)(F)F)c3)nc2C1)c1ccccc1 [Compound 50, (2S,3S)-3-hydroxy-2-phenyl-1-{2-[1-(2,2,2-trifluoroethyl)pyrazol-4-ylsulfonyl]-4H,6H-pyrrolo[3,4-c]pyrazol-5-yl}butan-1-one]

The remaining lines, values behind:

Structure (SMILES)	AC50 [nM]	Emax [%]	AC50 [1] [nM]
Cc1nc(C)c(S(=O)(=O)n2cc3c(n2)CN(C(=O)[C@H](CO)c2ccccc2)C3)s1 [Compound 15, (2S)-1-{2-[(2,4-dimethyl-1,3-thiazol-5-yl)sulfonyl]-2H,4H,5H,6H-pyrrolo[3,4-c]pyrazol-5-yl}-3-hydroxy-2-phenylpropan-1-one]	44	15	
Cc1noc(C)c1S(=O)(=O)n1cc2c(n1)CN(C(=O)[C@H](CO)c1ccccc1)C2 [Compound 16, (2S)-1-{2-[(3,5-dimethyl-1,2-oxazol-4-yl)sulfonyl]-2H,4H,5H,6H-pyrrolo[3,4-c]pyrazol-5-yl}-3-hydroxy-2-phenylpropan-1-one]		55	1000
Cc1nc(CCC(F)(F)F)sc1S(=O)(=O)n1cc2c(n1)CN(C(=O)[C@H](CO)c1ccccc1)C2 [Compound 20, (2S)-3-hydroxy-1-(2-{[4-methyl-2-(3,3,3-trifluoropropyl)-1,3-thiazol-5-yl]sulfonyl}-2H,4H,5H,6H-pyrrolo[3,4-c]pyrazol-5-yl)-2-phenylpropan-1-one]	720	7	
O=C([C@@H](CO)c1ccccc1F)N1Cc2cn(S(=O)(=O)c3cnn(CC(F)(F)F)c3)nc2C1 [Compound 33, (2R)-2-(2-fluorophenyl)-3-hydroxy-1-[2-[1-(2,2,2-trifluoroethyl)pyrazol-4-ylsulfonyl]-4H,6H-pyrrolo[3,4-c]pyrazol-5-yl]propan-1-one]		89	450
O=C([C@@H](O)c1ccccc1)N1Cc2cn(S(=O)(=O)c3cnn(CC(F)F)c3)nc2C1 [Compound 34, (2S)-1-[2-[1-(2,2-difluoroethyl)pyrazol-4-ylsulfonyl]-4H,6H-pyrrolo[3,4-c]pyrazol-5-yl]-2-hydroxy-2-phenylethanone]	930	102	
O=C([C@@H](O)c1ccccc1F)N1Cc2cn(S(=O)(=O)c3cnn(CC(F)F)c3)nc2C1 [Compound 37, (2S)-1-[2-[1-(2,2-difluoroethyl)pyrazol-4-ylsulfonyl]-4H,6H-pyrrolo[3,4-c]pyrazol-5-yl]-2-(2-fluorophenyl)-2-hydroxyethanone]		126	960
COCCn1ccc(S(=O)(=O)n2cc3c(n2)CN(C(=O)[C@H](CO)c2ccccc2F)C3)n1 [Compound 44, (2S)-2-(2-fluorophenyl)-3-hydroxy-1-[2-[1-(2-methoxyethyl)pyrazol-3-ylsulfonyl]-4H,6H-pyrrolo[3,4-c]pyrazol-5-yl]propan-1-one]		53	110
COCCn1ccc(S(=O)(=O)n2cc3c(n2)CN(C(=O)[C@@H](CO)c2ccccc2F)C3)n1 [Compound 45, (2R)-2-(2-fluorophenyl)-3-hydroxy-1-[2-[1-(2-methoxyethyl)pyrazol-3-ylsulfonyl]-4H,6H-pyrrolo[3,4-c]pyrazol-5-yl]propan-1-one]		53	1300
O=C([C@H](CO)c1ccccc1Cl)N1Cc2cn(S(=O)(=O)c3cnn(CC(F)(F)F)c3)nc2C1 [Compound 47, (2S)-2-(2-chlorophenyl)-3-hydroxy-1-[2-[1-(2,2,2-trifluoroethyl)pyrazol-4-ylsulfonyl]-4H,6H-pyrrolo[3,4-c]pyrazol-5-yl]propan-1-one]		108	10
O=C([C@@H](CO)c1ccccc1Cl)N1Cc2cn(S(=O)(=O)c3cnn(CC(F)(F)F)c3)nc2C1 [Compound 48, (2R)-2-(2-chlorophenyl)-3-hydroxy-1-[2-[1-(2,2,2-trifluoroethyl)pyrazol-4-ylsulfonyl]-4H,6H-pyrrolo[3,4-c]pyrazol-5-yl]propan-1-one]		111	580
